Reference: US20030073695A1, “Methods of use of gemifloxacin compounds against fluoroquinolone resistant Streptococcus pneumoniae bacteria” (priority 2000, published 2003)
Converted amounts (≈) assume the structure as drawn.

Key:
[1] = test system: S. pneumoniae with reduced susceptibility to CIP; assay: MIC by NCCLS microbroth dilution, 80 clinical isolates with CIP MIC ≧2 μg/ml; type: cell-based; conditions: Streptococcus pneumoniae, 80 isolates with CIP MICs ≧2 μg/ml
Protocol: MICs to penicillin (herein “PEN”), CIP, levofloxacin (herein “LEV”), TFX, moxifloxacin (herein “MOX”), grepafloxacin (herein “GRE”), gatifloxacin (herein “GAT”), sparfloxacin (herein “SPA”), and gemifloxacin (herein “GFX”) were determined using a microbroth dilution technique described by the NCCLS. Topoisomerase IV (parC) and DNA gyrase (gyrA) mutations were confirmed by sequencing the QRDR region of each gene. Serotyping and PFGE were performed on all isolates. […] Breakpoints have not been established for all fluoroquines, thus percentage resistance was not calculated.

[2] = test system: CFX and TFX susceptible and resistant S. pneumoniae; assay: Postantibiotic effect (PAE), 2 hour exposure, viable colony counting; type: cell-based, Streptococcus pneumoniae; conditions: for mean PAE at 4× MIC: exposure 2 hours at 4× MIC; for mean PAE at 10× MIC: exposure 2 hours at 10× MIC
Protocol: This invention was based, in part, on analyses evaluating the comparative activity of gemifloxacin against various strains of S. pneumoniae.
MICs were determined using a microbroth dilution technique described by the NCCLS. Topisomeriase IV (parC) and DNA gyrase (gyrA) mutations were confirmed by sequencing the QRDR region of each gene. […] Antibiotics were removed using dilution into sterile media and the PAE assessed using a viable colony counting technique.

[3] = isolates susceptible to the tested drug
[4] = GFX, isolates not restricted to susceptible

| MIC50 ([1]; MIC50 of Table 1) | MIC50 ([1]; Table 1 MIC50) | MIC [1] | mean PAE at 4× MIC [2, 4] | mean PAE at 10× MIC [2, 4] | Compound | mean PAE at 4× MIC [2, 3] | mean PAE at 10× MIC [2, 3] | difference in duration of PAE between CFX or TFX susceptible and resistant strains ([2]; p<0.05) |
| --- | --- | --- | --- | --- | --- | --- | --- | --- |
| 0.5 µg/mL (≈ 1.39 µM) | 8 µg/mL (≈ 22.3 µM) | 0.12 to 8 µg/mL (≈ 0.334 to 22.3 µM) |  |  | Cc1c(F)c(N2CCNC(C)C2)cc2c1c(=O)c(C(=O)O)cn2C1CC1 (centres unmarked) [GRE, grepafloxacin] |  |  |  |
| 0.25 µg/mL (≈ 0.623 µM) | 2 µg/mL (≈ 4.98 µM) | 0.12 to 4 µg/mL (≈ 0.299 to 9.96 µM) |  |  | COc1c(N2C[C@@H]3CCCN[C@@H]3C2)c(F)cc2c(=O)c(C(=O)O)cn(C3CC3)c12 [MOX, moxifloxacin] |  |  |  |
| 0.5 µg/mL (≈ 1.33 µM) | 4 µg/mL (≈ 10.7 µM) | 0.25 to 8 µg/mL (≈ 0.666 to 21.3 µM) |  |  | COc1c(N2CCNC(C)C2)c(F)cc2c(=O)c(C(=O)O)cn(C3CC3)c12 (centres unmarked) [GAT, gatifloxacin] |  |  |  |
| 0.5 µg/mL (≈ 1.27 µM) | 16 µg/mL (≈ 40.8 µM) | 0.25 to 32 µg/mL (≈ 0.637 to 81.5 µM) |  |  | C[C@@H]1CN(c2c(F)c(N)c3c(=O)c(C(=O)O)cn(C4CC4)c3c2F)C[C@H](C)N1 [SPA, sparfloxacin] |  |  |  |
| 2 µg/mL (≈ 5.53 µM) | 16 µg/mL (≈ 44.3 µM) | 1 to 32 µg/mL (≈ 2.77 to 88.6 µM) |  |  | C[C@H]1COc2c(N3CCN(C)CC3)c(F)cc3c(=O)c(C(=O)O)cn1c23 [LEV, levofloxacin] |  |  |  |
| 0.06 µg/mL (≈ 0.154 µM) | 0.25 µg/mL (≈ 0.642 µM) | 0.03 to 0.5 µg/mL (≈ 0.077 to 1.28 µM) | 2.7 h | 3.8 h | CO/N=C1\CN(c2nc3c(cc2F)c(=O)c(C(=O)O)cn3C2CC2)CC1CN (racemic) [GFX, (R,S)-7-(3-aminomethyl-4-methoxyiminopyrrolidin-1-yl)-1-cyclopropyl-6-fluoro-4-oxo-1,4-dihydro-1,8-naphthyridine-3-carboxylic acid] |  |  | no significant difference |

| Compound | MIC50 ([1]; MIC50 of Table 1) | MIC50 ([1]; Table 1 MIC50) | MIC [1] | mean PAE at 4× MIC [2, 4] | mean PAE at 10× MIC [2, 4] | mean PAE at 4× MIC [2, 3] | mean PAE at 10× MIC [2, 3] | difference in duration of PAE between CFX or TFX susceptible and resistant strains ([2]; p<0.05) |
| --- | --- | --- | --- | --- | --- | --- | --- | --- |
| N[C@@H]1[C@H]2CN(c3nc4c(cc3F)c(=O)c(C(=O)O)cn4-c3ccc(F)cc3F)C[C@@H]12 [TFX, trovafloxacin] | 0.5 µg/mL (≈ 1.2 µM) | 4 µg/mL (≈ 9.61 µM) | 0.06 to 8 µg/mL (≈ 0.144 to 19.2 µM) |  |  | 2.1 h | 3.2 h |  |
